Laboratory results taken from patent US20030228621A1, “Common ligand universal enzyme assay and compositions for use therein” (priority 2002, published 2003).
Read-outs that look alike come from different tables or passages of the source.

Key:
[1] = target: T1, dihydrodipicolinate reductase (DHPR) (Escherichia coli, UniProt P04036); assay: Fluorescence polarization displacement of FITC-NADH from dihydrodipicolinate reductase; format: binding
Procedure: FITC-NADH was dissolved in 10 mM TAPS buffer with 5% NaHCO3, pH=8. The final concentration of FITC-NADH was 150 μM. In later experiments 150 μM FITC-NADH was diluted to the desired concentration in 20 mM Potassium Phosphate buffer, pH=7.4. Fluorescence polarization was monitored using a Beacon 2000 Variable Temperature Fluorescence Polarization System (PanVera Corporation, Madison, Wis.) and an LJL Analyst HT 96-384 (Molecular Devices Corporation, Sunnyvale, Calif.). The concentration of FITC-NADH as fluorescent tracer was selected by measuring fluorescence polarization of varying concentrations of FITC-NADH in 10 mM Potassium Phosphate buffer, pH=7.4. The concentration range was 0.15 nM—15 nM. For the best signal to noise ratio regarding both the horizontal and vertical intensities that contribute to the fluorescence polarization value, a concentration of 25 nM was chosen for FITC-NADH in the majority of experiments.
The fluorescence polarization of solutions of 7 μM dihydrodipicolinate reductase and 25 nM FITC-NADH with NADH was measured. The concentration of dihydrodipicolinate reductase was such that a solution of dihydrodipicolinate reductase and FITC-NADH would give the fluorescence polarization mP value of 220-230 mP. The blank was protein in buffer and NADH. […] The data was fitted to the following equation:
mP=YH′−(YH′−YL)*(1/(1+Kd^app/C))
Kd=Kd^app*(1/(1+A/Kd^tracer))
(§1) where C is the concentration of NADH; A is the concentration of enzyme; YH′ is the polarization for the FITC-NADH at the specified enzyme concentration in the absence of NADH; YL is the polarization for FITC-NADH when fully displaced from the enzyme by NADH; and Kd^tracer is the dissociation constant of the enzyme for FITC-NADH.
The displacement of FITC-NADH from dihydrodipicolinate reductase in the presence of the candidate inhibitor compound bromaminic acid, an NMNH-mimic (nicotinamide mononucleotide mimic), was measured by fluorescence polarization assay. The concentration of dihydrodipicolinate reductase was such that dihydrodipicolinate reductase in the presence of FITC-NADH would give the fluorescence polarization, mP, value of 220-230. Protein in buffer combined with the inhibitor was used as the blank.
The Log(bromaminic acid, μM) versus Polarization (mP) data were fitted to the following equation: […]
as §1
In this assay, enzyme in the presence of the ligand has less FITC-NADPH bound if both of the ligands compete for the same site.
(§2) A population of 620 compounds were screened in the competitive displacement assay described herein. […] These compounds are depicted in FIG. 16.

[2] = target: DHPR (Escherichia coli, UniProt P04036); assay: Intrinsic fluorescence of the compound upon binding to the enzyme; details: excitation 365 nm, emission 435 nm
Source text: It can be used either as a tracer for the screening, with or without being labeled with a detectable moiety of the invention. As such, this compound can be used for screening candidate ligands.

[3] = target: Enoyl-acyl carrier protein reductase (EACPR) (Escherichia coli, UniProt P0AEK4); assay: Enzyme activity in presence and absence of varying concentration of dye, EACPR; format: biochemical; details: read-out: Inhibition (IC50, nM) EACPR
Procedure: (§3) In search for specific ligands with potent binding to several dehydrogenases we screened our internal enzyme panel. In brief, activity of the enzymes was measured in the presence and absence of the varying concentration of the dyes.

[4] = target: T1, dihydrodipicolinate reductase (DHPR); assay: Enzyme activity in presence and absence of varying concentration of dye, DHPR; format: biochemical; details: for IC50: read-out: Inhibition (IC50, nM) DHPR
Procedure: as §3

[5] = target: T2, 3-Hydro-3-methyl-glutaryl-CoA reductase (HMGCoAR) (Homo sapiens, UniProt P04035); assay: Enzyme activity in presence and absence of varying concentration of dye, HMGCoAR; format: biochemical; details: read-out: Inhibition (IC50, nM) HMGCoAR
T2 sequence (P04035 1-888): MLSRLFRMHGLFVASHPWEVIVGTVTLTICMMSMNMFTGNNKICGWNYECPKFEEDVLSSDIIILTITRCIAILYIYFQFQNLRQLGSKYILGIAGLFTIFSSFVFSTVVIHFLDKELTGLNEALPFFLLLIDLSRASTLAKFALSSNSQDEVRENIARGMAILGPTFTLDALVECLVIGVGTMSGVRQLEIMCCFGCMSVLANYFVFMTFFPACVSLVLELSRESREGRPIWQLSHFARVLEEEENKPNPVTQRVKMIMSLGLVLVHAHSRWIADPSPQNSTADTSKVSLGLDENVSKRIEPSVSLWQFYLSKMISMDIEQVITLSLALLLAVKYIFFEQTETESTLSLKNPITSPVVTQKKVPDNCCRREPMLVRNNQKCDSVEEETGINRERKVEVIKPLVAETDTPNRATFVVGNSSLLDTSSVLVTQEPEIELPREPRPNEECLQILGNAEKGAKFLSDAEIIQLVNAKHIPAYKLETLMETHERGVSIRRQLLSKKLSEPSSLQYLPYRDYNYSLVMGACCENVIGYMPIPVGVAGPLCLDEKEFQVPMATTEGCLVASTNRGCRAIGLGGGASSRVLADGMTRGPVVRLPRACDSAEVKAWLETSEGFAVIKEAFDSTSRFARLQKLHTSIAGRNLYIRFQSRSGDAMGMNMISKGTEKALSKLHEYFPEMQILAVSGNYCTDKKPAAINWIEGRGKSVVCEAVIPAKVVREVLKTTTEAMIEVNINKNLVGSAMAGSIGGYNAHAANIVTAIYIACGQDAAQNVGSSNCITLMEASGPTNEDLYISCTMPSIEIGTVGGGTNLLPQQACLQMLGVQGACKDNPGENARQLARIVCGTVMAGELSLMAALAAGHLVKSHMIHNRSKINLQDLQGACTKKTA
Procedure: as §3

[6] = test system: dehydrogenases; assay: Extent and reversibility of inhibition of the dehydrogenase panel by triazinyl dyes; format: biochemical
Procedure: as §3
Since all of the dye molecules have a triazinyl reactive group, reversibility of the inhibition was checked.
(§4) In this assay, the oxidoreductase common ligand (NADPH) was employed at a concentration sixteen times its Km value. Use of such a high concentration of oxidoreductase common ligand results in a calculated IC50 value at least 17-fold that of the dissociation constant (Kd).

[7] = target: Lactate dehydrogenase (LDH); assay: Enzyme activity in presence and absence of varying concentration of dye, LDH; format: biochemical; details: read-out: Inhibition (IC50, nM) LDH
Procedure: as §3

[8] = target: Deoxy-D-xylulose 5-phosphate reductoisomerase (DOXPR) (Escherichia coli, UniProt P45568); assay: Enzyme activity in presence and absence of varying concentration of dye, DOXPR; format: biochemical; details: for IC50: NADPH at sixteen times its Km, read-out: Inhibition (IC50, nM) DOXPR
Procedure: as §3, §4

[9] = target: DOXPR (Escherichia coli, UniProt P45568); assay: Displacement of FITC-NADPH from the FITC-NADPH:DOXPR complex; format: binding
Source text: (§5) The competitive binding of the dye common ligands of the present invention can be evaluated by use of a displacement assay. In particular, enzyme in the presence of a competitive ligand will have less FITC-NADPH bound if both ligands compete for the same site. […] The dye common ligands of the present invention can completely displace FITC-NADPH from complexes containing this fluorescent tracer and a dehydrogenase. […] Thus, dye common ligands of the invention are useful in displacement assays to study the activity of an oxidoreductase, particularly those having unknown function.
(§6) In competitive assays, the tested dyes displaced the fluorescent-based tracer FITC-NADPH, implying that the dyes bind to DOXPR at the common ligand site. In this assay, enzyme in the presence of the ligand has less FITC-NADPH bound if both of the ligands compete for the same site. […] Calculated Kd values were based on curve shape and were lower than the experimentally determined IC50s.
as §2

[10] = target: 1-deoxy-D-xylulose 5-phosphate reductoisomerase (DOXPR) (Escherichia coli, UniProt P45568); assay: Displacement of FITC-NADPH from the FITC-NADPH:DOXPR complex (FIG. 14A, 14B); format: binding; details: displacement of FITC-NADPH tracer from DOXPR
Source text: as §5, §6

[11] = 7 μM DHPR, 25 nM FITC-NADH, not corrected for enzyme concentration, read-out: Kapp (Kd app), displacement of FITC-NADH
[12] = 7 μM DHPR, 25 nM FITC-NADH, read-out: actual Kd after correction for enzyme concentration
[13] = calculated from curve shape, read-out: Kd from displacement experiments with FITC-NADH and DHPR

Deoxy-D-xylulose 5-phosphate reductoisomerase (DOXPR), sequence (P45568 whole entry): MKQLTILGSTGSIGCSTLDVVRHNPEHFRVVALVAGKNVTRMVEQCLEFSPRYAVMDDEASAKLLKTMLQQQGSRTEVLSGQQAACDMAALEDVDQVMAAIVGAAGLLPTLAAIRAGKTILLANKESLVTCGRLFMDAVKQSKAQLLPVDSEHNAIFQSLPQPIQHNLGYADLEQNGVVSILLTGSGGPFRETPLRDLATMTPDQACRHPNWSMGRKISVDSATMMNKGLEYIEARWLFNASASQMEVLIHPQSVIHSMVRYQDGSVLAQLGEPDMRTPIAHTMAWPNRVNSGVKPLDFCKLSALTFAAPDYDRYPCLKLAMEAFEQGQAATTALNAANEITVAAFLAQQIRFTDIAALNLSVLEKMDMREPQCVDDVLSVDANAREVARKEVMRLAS
T1 sequence (P04036 whole entry): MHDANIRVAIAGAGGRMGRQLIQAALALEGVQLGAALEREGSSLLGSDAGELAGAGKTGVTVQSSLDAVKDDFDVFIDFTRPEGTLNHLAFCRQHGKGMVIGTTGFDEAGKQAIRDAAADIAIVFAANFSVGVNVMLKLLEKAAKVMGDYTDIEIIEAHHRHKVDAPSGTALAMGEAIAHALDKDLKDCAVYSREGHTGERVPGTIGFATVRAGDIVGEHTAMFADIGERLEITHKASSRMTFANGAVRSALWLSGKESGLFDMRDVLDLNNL
DOXPR, sequence (P45568 whole entry): as the sequence (P45568 whole entry) above
1-deoxy-D-xylulose 5-phosphate reductoisomerase (DOXPR), sequence (P45568 whole entry): as above
Enoyl-acyl carrier protein reductase (EACPR), sequence (P0AEK4 whole entry): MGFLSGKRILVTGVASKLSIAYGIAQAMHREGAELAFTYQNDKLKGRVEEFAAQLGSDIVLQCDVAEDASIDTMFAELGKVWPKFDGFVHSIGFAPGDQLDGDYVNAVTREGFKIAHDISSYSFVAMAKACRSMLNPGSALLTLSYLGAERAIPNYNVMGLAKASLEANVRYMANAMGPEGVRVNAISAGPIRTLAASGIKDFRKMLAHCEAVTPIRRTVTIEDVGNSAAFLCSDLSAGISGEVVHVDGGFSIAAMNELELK
DHPR, sequence (P04036 whole entry): as the sequence (P04036 whole entry) above

O=S(=O)(O)c1cc(Nc2nc(Nc3ccccc3)nc(N(CCO)CCO)n2)ccc1/C=C\c1ccc(Nc2nc(Nc3ccccc3)nc(N(CCO)CCO)n2)cc1S(=O)(=O)O
Kd ([1]; compound from screen of 620 compounds, read-out: kd, tight binding to DHPR): < 100 nM | increase in intrinsic fluorescence upon binding to the enzyme [2]: 3 fold

NC(=O)C1=CN([C@@H]2O[C@H](COP(=O)(O)OP(=O)(O)OC[C@H]3O[C@@H](n4cnc5c(N)ncnc54)[C@H](O)[C@@H]3O)[C@@H](O)[C@H]2O)C=CC1 [NADH, Reduced nicotinamide adenine dinucleotide]
Kd [1, 11]: 1200 ± 150 nM | Kd [1, 12]: 200 nM

Nc1c(S(=O)(=O)O)cc(Nc2ccc(Nc3nc(Cl)nc(Nc4cccc(S(=O)(=O)O)c4)n3)c(S(=O)(=O)O)c2)c2c1C(=O)c1ccccc1C2=O [Reactive Blue 2]
IC50 [3]: 2500 nM | IC50 [4]: 1100 nM | IC50 [5]: 1000 nM | reversibility of the inhibition [6]: full reversible inhibition | IC50 [7]: 1500 nM | IC50 [8]: 2000 nM

O=S(=O)(O)c1cc(Nc2nc(Cl)nc(Nc3ccc(Nc4nc(Cl)nc(Nc5cc(S(=O)(=O)O)cc6cc(S(=O)(=O)O)c(N=Nc7ccccc7S(=O)(=O)O)c(O)c56)n4)cc3)n2)c2c(O)c(N=Nc3ccccc3S(=O)(=O)O)c(S(=O)(=O)O)cc2c1 [Reactive Red 120]
displacement of FITC-NADPH from the FITC-NADPH:DOXPR complex [9]: completely displaced | Kd [1, 13]: 54 nM | IC50 [3]: 246 nM | IC50 [4]: 220 nM | IC50 [5]: 360 nM | reversibility of the inhibition [6]: full reversible inhibition | Kd ([10]; calculated, based on curve shape): 5.8 nM | IC50 [10]: 310 nM | IC50 [7]: 9.7 nM | mode of inhibition versus oxidoreductase common ligand (NADPH) [8]: competitive | IC50 [8]: 230 nM

Nc1c(S(=O)(=O)O)cc(Br)c2c1C(=O)c1ccccc1C2=O [bromaminic acid]
Kd [1, 11]: 30000 ± 2200 nM | Kd [1, 12]: 5000 nM

Reactive Green 5
displacement of FITC-NADPH from the FITC-NADPH:DOXPR complex [9]: completely displaced | Kd [1, 13]: 15 nM | IC50 [4]: 230 nM | IC50 [5]: 44 nM | reversibility of the inhibition [6]: full reversible inhibition | IC50 [7]: 590 nM | mode of inhibition versus oxidoreductase common ligand (NADPH) [8]: competitive

Sulphophthalocyanine
binding to DHPR ([4]; tested for inhibition of DHPR): binds | binding to DOXPR ([8]; tested for inhibition of DOXPR): binds
